# Experimental data taken from patent publication US20240398771A1, “TREATMENT OF SCLERODERMA AND RAYNAUD'S SYNDROME” (Aisa Pharma, Inc., priority 2023, published 2024).
# Tests used:
# participants with SSc-RP [1] = experiment: Average daily Raynaud's Condition Score (RCS); type: in vivo, human; set-up: key to Average Daily RCS: Baseline, Mean / Average Daily RCS: Baseline, Median: daily RCS on VAS 0-10 cm scale; settings: Tadalafil 5 mg; ITT Part A
# Description: (§1) The relevant metrics measured by this tool daily are: • Study medication • SSc-RP symptoms (Reporting an attack including duration of attack) • Severity of the attack considering all symptoms of the attack e.g. tingling, numbness, pain, color changes (VAS 0-10 cm scale) • Participant's location at the time of the attack (inside home/outside home) • Selecting symptoms experienced during the attack (tingling, numbness, pain, color changes, other) • Pain rating during the attack (11-point Likert scale) • The RCS based on how much difficulty participants had with Raynaud's today, how many attacks the participant had, and how long they lasted. Participants will also be asked to consider how much pain, numbness, or other symptoms the Raynaud's caused in fingers (including painful sores), and how much the Raynaud's alone affected the use of hands today (VAS 0-10 cm scale).
# The RCS is based on how much difficulty participants had with Raynaud's today, how many attacks the participant had, and how long they lasted. In addition participants were and will be asked to consider how much pain, numbness, or other symptoms the Raynaud's caused in fingers (including painful sores), and how much the Raynaud's along affected the use of hand today (VAS 0-10 cm scale).
# The absolute change in average daily RCS from baseline to the end of each dosing period was and will be a secondary outcome variable. The sponsor-developed participant-informed diary has been and will be used to record data. The average daily RCS is defined as the total RCS divided by the number of days with available diary data of each dosing period. Total RCS during screening period divided by the number of days with available data will be used as baseline for the analysis of all periods. If there are multiple daily RCS scores, the latest daily RCS will be used. The variable will be calculated similar to frequency data as before.
# participants with SSc-RP [2] = experiment: Average duration of weekly RP attacks, all attacks (minutes); type: in vivo, human
# Description: as §1
# The absolute change in average duration of weekly RP attacks from baseline to the end of each dosing period was and will be a secondary outcome variable. The sponsor-developed participant-informed diary was and will be used to record data. Average duration of weekly RP attacks is defined as the total duration of RP attacks divided by total number of RP attacks within the last 7 days of each dosing period. Total duration of RP attacks during the last 7 days of screening period divided by the total number of RP attacks will be used as baseline for the analysis of all periods. The variable will be calculated similar to frequency data as before.
# [3] = Excluding Outliers, ITT Population - Part A (Table B-6), last 7 days of dosing period
# [4] = Excluding Outliers, ITT Population - Part A (Table B-6), last 7 days of screening period
# [5] = ITT Population - Part A (Table B-5), last 7 days of dosing period
# [6] = ITT Population - Part A (Table B-5), last 7 days of screening period
compound,measurement,setting,value
CN1CC(=O)N2[C@H](c3ccc4c(c3)OCO4)c3[nH]c4ccccc4c3C[C@@H]2C1=O [Tadalafil],"Average Daily RCS: Baseline, Mean",participants with SSc-RP [1],7.72
same,"Average Daily RCS: Baseline, Median",participants with SSc-RP [1],7.72
same,"Average Duration of weekly RP attacks (All Attacks), Max",participants with SSc-RP [2]; [3],"5.9, 5.9 minutes"
same,"Average Duration of weekly RP attacks (All Attacks), Min",participants with SSc-RP [2]; [3],"5.9, 5.9 minutes"
same,"Average Duration of weekly RP attacks (All Attacks), Q1",participants with SSc-RP [2]; [3],"5.95, 5.95 minutes"
same,"Average duration of weekly RP attacks (All Attacks), Change from Baseline, Max",participants with SSc-RP [2]; [3],"−5.0, −5.0 minutes"
same,"Average duration of weekly RP attacks (All Attacks), Change from Baseline, Min",participants with SSc-RP [2]; [3],"−5.0, −5.0 minutes"
same,"Average duration of weekly RP attacks (All Attacks), Percent Change from Baseline, Max",participants with SSc-RP [2]; [3],"−45.6, −45.6%"
same,"Average duration of weekly RP attacks (All Attacks), Percent Change from Baseline, Min",participants with SSc-RP [2]; [3],"−45.6, −45.6%"
same,"Average duration of weekly RP attacks (All Attacks), Baseline, Max",participants with SSc-RP [2]; [4],"10.9, 10.9 minutes"
same,"Average duration of weekly RP attacks (All Attacks), Baseline, Min",participants with SSc-RP [2]; [4],"10.9, 10.9 minutes"
same,"Average duration of weekly RP attacks (All Attacks), Baseline, Q1",participants with SSc-RP [2]; [4],"10.92, 10.92 minutes"
same,"Average duration of weekly RP attacks (All Attacks), Baseline, Q3",participants with SSc-RP [2]; [4],"10.92, 10.92 minutes"
same,Average Duration of weekly RP attacks (All Attacks),participants with SSc-RP [2]; [5],5.9 min
same,"Average Duration of weekly RP attacks (All Attacks), Max",participants with SSc-RP [2]; [5],818.6 min
same,"Average Duration of weekly RP attacks (All Attacks), Q1",participants with SSc-RP [2]; [5],5.95 min
same,"Average Duration of weekly RP attacks (All Attacks), Q3",participants with SSc-RP [2]; [5],818.57 min
same,"Average duration of weekly RP attacks (All Attacks), Change from Baseline",participants with SSc-RP [2]; [5],-5.0 min
same,"Average duration of weekly RP attacks (All Attacks), Change from Baseline, Max",participants with SSc-RP [2]; [5],188.6 min
same,"Average duration of weekly RP attacks (All Attacks), Change from Baseline, Mean",participants with SSc-RP [2]; [5],91.80 min
same,"Average duration of weekly RP attacks (All Attacks), Change from Baseline, Median",participants with SSc-RP [2]; [5],91.80 min
same,"Average duration of weekly RP attacks (All Attacks), Change from Baseline, Q3",participants with SSc-RP [2]; [5],188.57 min
same,"Average duration of weekly RP attacks (All Attacks), Percent Change from Baseline, Max",participants with SSc-RP [2]; [5],29.9%
same,"Average duration of weekly RP attacks (All Attacks), Percent Change from Baseline, Mean",participants with SSc-RP [2]; [5],−7.81%
same,"Average duration of weekly RP attacks (All Attacks), Percent Change from Baseline, Median",participants with SSc-RP [2]; [5],−7.81%
same,"Average duration of weekly RP attacks (All Attacks), Percent Change from Baseline, Min",participants with SSc-RP [2]; [5],−45.6%
same,"Average duration of weekly RP attacks (All Attacks), Percent Change from Baseline, Q3",participants with SSc-RP [2]; [5],29.93%
same,"Average duration of weekly RP attacks (All Attacks), Baseline",participants with SSc-RP [2]; [6],10.9 min
same,"Average duration of weekly RP attacks (All Attacks), Baseline, Max",participants with SSc-RP [2]; [6],630.0 min
same,"Average duration of weekly RP attacks (All Attacks), Baseline, Q1",participants with SSc-RP [2]; [6],10.92 min
same,"Average duration of weekly RP attacks (All Attacks), Baseline, Q3",participants with SSc-RP [2]; [6],630.00 min
